This passage reports IC50 results from patent US20250215029A1 (Recludix Pharma, Inc., priority 2022, published 2025).

One experiment deals with T1, pY705-STAT3 in PBMC (Homo sapiens, UniProt P40763).
T1 construct: Cryopreserved Peripheral Blood Mononuclear Cells (PBMC) are from AllCells; host or cells: cryopreserved PBMC
The experiment in a line: MSD-pSTAT-PBMC Assay (pSTAT3, IL-6 stimulated). It is filed as cell-based. The settings on record: compound 3 hrs, then 10 ng/mL IL-6 for 10 min, Table 115. The essentials: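 Thawed human PBMC rested overnight in IMDM/10% FBS, then got compound for 3 hrs before a 10 min cytokine pulse: 1 ng/mL IL-4 for pSTAT6, 10 ng/mL IL-6 for pSTAT3. Lysates went to MSD sandwich capture on total STAT6 or STAT3 with phospho-specific detection. IC50 came from background-subtracted, DMSO-normalized signal.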

The next experiment has as its target T2, pY641-STAT6 in PBMC (Homo sapiens, UniProt P42226).
T2 construct: Cryopreserved Peripheral Blood Mononuclear Cells (PBMC) are from AllCells; host or cells: cryopreserved PBMC
T2 sequence (P42226 1-847): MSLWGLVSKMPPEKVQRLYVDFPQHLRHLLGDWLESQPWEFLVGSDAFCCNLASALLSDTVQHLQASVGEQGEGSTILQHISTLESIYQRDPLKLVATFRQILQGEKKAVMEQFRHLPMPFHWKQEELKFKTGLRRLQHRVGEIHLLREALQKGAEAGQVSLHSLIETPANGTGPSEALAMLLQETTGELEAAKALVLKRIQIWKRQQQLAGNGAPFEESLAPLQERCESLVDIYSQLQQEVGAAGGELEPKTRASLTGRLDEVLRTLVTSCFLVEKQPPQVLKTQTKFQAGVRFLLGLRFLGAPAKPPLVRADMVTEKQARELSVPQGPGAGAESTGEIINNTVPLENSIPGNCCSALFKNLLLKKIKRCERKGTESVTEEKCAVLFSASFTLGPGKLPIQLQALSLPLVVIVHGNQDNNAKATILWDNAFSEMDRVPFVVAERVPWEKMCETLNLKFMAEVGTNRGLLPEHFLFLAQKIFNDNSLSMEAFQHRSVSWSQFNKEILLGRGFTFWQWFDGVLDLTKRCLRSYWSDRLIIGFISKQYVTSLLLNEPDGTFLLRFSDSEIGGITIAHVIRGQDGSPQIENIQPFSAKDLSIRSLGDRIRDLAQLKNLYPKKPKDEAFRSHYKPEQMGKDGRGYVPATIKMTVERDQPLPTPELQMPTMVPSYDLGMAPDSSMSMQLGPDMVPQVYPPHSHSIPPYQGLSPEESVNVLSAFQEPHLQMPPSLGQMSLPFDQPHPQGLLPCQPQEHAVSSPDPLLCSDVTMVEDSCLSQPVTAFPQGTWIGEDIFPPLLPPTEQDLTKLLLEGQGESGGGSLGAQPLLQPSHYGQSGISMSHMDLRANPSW
The experiment in a line: MSD-pSTAT-PBMC Assay (pSTAT6, IL-4 stimulated). The format is cell-based. The settings on record: STAT6, PBMC, compound 3 hrs, then 1 ng/mL IL-4 for 10 min; Table 115. Put shortly: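 MSD electrochemiluminescence read-out: total STAT captured, probed with anti-pY641-STAT6 or anti-pY705-STAT3. Human PBMC, 3 h compound pretreatment, 10 min stimulation (IL-4 1 ng/mL or IL-6 10 ng/mL). Unstimulated signal subtracted, DMSO-normalized, variable-slope IC50.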

SMILES strings stand for the structures. Where two headings read alike, the source gives them in different places.

T1 sequence (P40763 whole entry): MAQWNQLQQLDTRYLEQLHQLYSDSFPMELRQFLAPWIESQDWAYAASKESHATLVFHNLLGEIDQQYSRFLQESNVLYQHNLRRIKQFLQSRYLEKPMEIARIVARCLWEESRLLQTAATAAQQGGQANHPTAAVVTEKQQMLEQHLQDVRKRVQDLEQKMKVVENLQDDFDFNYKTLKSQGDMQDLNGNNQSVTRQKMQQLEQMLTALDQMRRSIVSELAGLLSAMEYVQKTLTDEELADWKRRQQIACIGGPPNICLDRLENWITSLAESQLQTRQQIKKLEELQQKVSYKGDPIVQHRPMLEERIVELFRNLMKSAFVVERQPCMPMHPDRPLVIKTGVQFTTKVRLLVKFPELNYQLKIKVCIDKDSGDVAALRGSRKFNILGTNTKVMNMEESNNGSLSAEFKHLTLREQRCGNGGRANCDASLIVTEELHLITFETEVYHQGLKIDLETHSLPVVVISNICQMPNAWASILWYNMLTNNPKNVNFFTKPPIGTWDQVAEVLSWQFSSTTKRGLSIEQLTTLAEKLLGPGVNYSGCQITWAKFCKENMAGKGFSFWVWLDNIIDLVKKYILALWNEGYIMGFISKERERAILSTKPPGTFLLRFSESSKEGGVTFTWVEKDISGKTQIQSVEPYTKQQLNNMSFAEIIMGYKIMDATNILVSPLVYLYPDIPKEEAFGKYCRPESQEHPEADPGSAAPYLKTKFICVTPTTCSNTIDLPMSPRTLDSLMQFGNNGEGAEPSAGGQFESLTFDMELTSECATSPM

In the case of `CCCOC(=O)[C@H](C)NP(=O)(Oc1ccccc1)[C@@H](F)c1ccc2sc(C(=O)N[C@H]3CCCC[C@H]4CC[C@@H](C(=O)N5C[C@H](c6ccccc6)[C@@H](C#N)C56CC6)N4C3=O)cc2c1` (stereo partly drawn) [Compound 381, propyl (((R)-(2-(((3S,6S,10aS)-3-((6S,7R)-7-cyano-6-phenyl-4-azaspiro[2.4]heptane-4-carbonyl)-5-oxodecahydropyrrolo [1,2-a]azocin-6-yl)carbamoyl)benzo [b]thiophen-5-yl)fluoromethyl) (phenoxy)phosphoryl)-L-alaninate], the IC50 on pY705-STAT3 in PBMC (PBMC, read-out: STAT3) was more than 3 µM; against pY641-STAT6 in PBMC, less than 100 nM.

As to `CCCOC(=O)[C@H](C)NP(=O)(Oc1ccccc1)[C@@H](F)c1ccc2sc(C(=O)N[C@H]3CCC[C@H]4CC[C@@H](C(=O)N5C[C@@H](c6ccccc6)[C@H](C#N)C56CC6)N4C3=O)cc2c1` (stereo partly drawn) [Compound 382, propyl (((R)-(2-(((3S,6S,9aS)-3-((6R,7S)-7-cyano-6-phenyl-4-azaspiro[2.4]heptane-4-carbonyl)-5-oxooctahydro-1H-pyrrolo[1,2-a]azepin-6-yl)carbamoyl)benzo [b]thiophen-5-yl)fluoromethyl) (phenoxy)phosphoryl)-L-alaninate], the IC50 on pY705-STAT3 in PBMC (STAT3, PBMC) is more than 3 µM; against pY641-STAT6 in PBMC it was less than 100 nM.

In the case of `CCCOC(=O)[C@H](C)NP(=O)(Oc1ccccc1)[C@H](F)c1ccc2sc(C(=O)N[C@H]3CCC[C@H]4CC[C@@H](C(=O)N5C[C@H](c6ccccc6)[C@@H](C#N)C56CC6)N4C3=O)cc2c1` (stereo partly drawn) [Compound 388, propyl (((S)-(2-(((3S,6S,9aS)-3-((6S,7R)-7-cyano-6-phenyl-4-azaspiro[2.4]heptane-4-carbonyl)-5-oxooctahydro-1H-pyrrolo[1,2-a]azepin-6-yl)carbamoyl)benzo [b]thiophen-5-yl)fluoromethyl) (phenoxy)phosphoryl)-L-alaninate], the IC50 is more than 3 µM on pY705-STAT3 in PBMC (STAT3, PBMC) and less than 100 nM against pY641-STAT6 in PBMC.

`CCOC(=O)[C@H](C)NP(=O)(Cc1ccc2ccc(C(=O)N[C@H]3CCCC[C@H]4CC[C@@H](C(=O)N5CC(c6ccccc6)CC56CC6)N4C3=O)cc2c1)Oc1ccccc1` (stereo partly drawn) [Compound 396, ethyl (((7-(((3S,6S,10aS)-5-oxo-3-(6-phenyl-4-azaspiro[2.4]heptane-4-carbonyl)decahydropyrrolo[1,2-a]azocin-6-yl)carbamoyl)naphthalen-2-yl)methyl)(phenoxy)phosphoryl)-L-alaninate]: the IC50 at pY705-STAT3 in PBMC (PBMC, read-out: STAT3) was more than 3 µM; on pY641-STAT6 in PBMC, 1000 to 3000 nM.

Regarding `C[C@H](NP(=O)(Cc1ccc2ccc(C(=O)N[C@H]3CCCC[C@H]4CC[C@@H](C(=O)N5CC(c6ccccc6)CC56CC6)N4C3=O)cc2c1)Oc1ccccc1)C(=O)OCc1ccccc1` (stereo partly drawn) [Compound 397, benzyl (((7-(((3S,6S,10aS)-5-oxo-3-(6-phenyl-4-azaspiro[2.4]heptane-4-carbonyl)decahydropyrrolo[1,2-a]azocin-6-yl)carbamoyl)naphthalen-2-yl)methyl)(phenoxy)phosphoryl)-L-alaninate], the IC50 at pY705-STAT3 in PBMC (PBMC, read-out: STAT3) was more than 3 µM; against pY641-STAT6 in PBMC it was more than 3000 nM.

In the case of `CCCOC(=O)[C@H](C)NP(=O)(Cc1ccc2ccc(C(=O)N[C@H]3CCCC[C@H]4CC[C@@H](C(=O)N5C[C@H](c6cc[nH]c(=O)c6)CC56CC6)N4C3=O)cc2c1)Oc1ccccc1` (stereo partly drawn) [Compound 402, propyl (((7-(((3S,6S,10aS)-5-oxo-3-((S)-6-(2-oxo-1,2-dihydropyridin-4-yl)-4-azaspiro[2.4]heptane-4-carbonyl)decahydropyrrolo[1,2-a]azocin-6-yl)carbamoyl)naphthalen-2-yl)methyl)(phenoxy)phosphoryl)-L-alaninate], the IC50 was more than 3 µM on pY705-STAT3 in PBMC (PBMC, read-out: STAT3) and 1000 to 3000 nM on pY641-STAT6 in PBMC.

On to `CCCOC(=O)[C@H](C)NP(=O)(Oc1ccccc1)C(F)(F)c1ccc2ccc(C(=O)N[C@H]3CCCC[C@H]4CC[C@@H](C(=O)N5CC(c6ccccc6)CC56CC6)N4C3=O)cc2c1` (stereo partly drawn) [Compound 403, propyl ((difluoro(7-(((3S,6S,10aS)-5-oxo-3-(6-phenyl-4-azaspiro[2.4]heptane-4-carbonyl)decahydropyrrolo[1,2-a]azocin-6-yl)carbamoyl)naphthalen-2-yl)methyl)(phenoxy)phosphoryl)-L-alaninate], for which the IC50 at pY705-STAT3 in PBMC (PBMC, read-out: STAT3) was more than 3 µM; at pY641-STAT6 in PBMC, 100 to 1000 nM.

Turning to `CCC(CC)COC(=O)[C@H](C)NP(=O)(Cc1ccc2ccc(C(=O)N[C@H]3CCCC[C@H]4CC[C@@H](C(=O)N5CC(c6ccccc6)CC56CC6)N4C3=O)cc2c1)Oc1ccccc1` (stereo partly drawn) [Compound 404, 2-ethylbutyl (((7-(((3S,6S,10aS)-5-oxo-3-(6-phenyl-4-azaspiro[2.4]heptane-4-carbonyl)decahydropyrrolo[1,2-a]azocin-6-yl)carbamoyl)naphthalen-2-yl)methyl)(phenoxy)phosphoryl)-L-alaninate], the IC50 at pY705-STAT3 in PBMC (PBMC, read-out: STAT3) was more than 3 µM; at pY641-STAT6 in PBMC, 1000 to 3000 nM.

Consider `CCCCOC(=O)[C@H](C)NP(=O)(Cc1ccc2ccc(C(=O)N[C@H]3CCCC[C@H]4CC[C@@H](C(=O)N5CC(c6ccccc6)CC56CC6)N4C3=O)cc2c1)Oc1ccccc1` (stereo partly drawn) [Compound 405, butyl (((7-(((3S,6S,10aS)-5-oxo-3-(6-phenyl-4-azaspiro[2.4]heptane-4-carbonyl)decahydropyrrolo[1,2-a]azocin-6-yl)carbamoyl)naphthalen-2-yl)methyl)(phenoxy)phosphoryl)-L-alaninate], for which the IC50 on pY705-STAT3 in PBMC (PBMC, read-out: STAT3) is more than 3 µM; against pY641-STAT6 in PBMC it was 1000 to 3000 nM.

For the compound `CCCCOC(=O)[C@H](C)NP(=O)(Oc1cccc2ccccc12)C(F)(F)c1ccc2ccc(C(=O)N[C@H]3CCCC[C@H]4CC[C@@H](C(=O)N5CC(c6ccccc6)CC56CC6)N4C3=O)cc2c1` (stereo partly drawn) [Compound 406, butyl ((difluoro(7-(((3S,6S,10aS)-5-oxo-3-(6-phenyl-4-azaspiro[2.4]heptane-4-carbonyl)decahydropyrrolo[1,2-a]azocin-6-yl)carbamoyl)naphthalen-2-yl)methyl) (naphthalen-1-yloxy)phosphoryl)-L-alaninate], the IC50 is more than 3 µM at pY705-STAT3 in PBMC (PBMC, read-out: STAT3) and 1000 to 3000 nM against pY641-STAT6 in PBMC.

For `CCCCOC(=O)[C@H](C)NP(=O)(Oc1ccccc1)C(F)(F)c1ccc2ccc(C(=O)N[C@H]3CCCC[C@H]4CC[C@@H](C(=O)N5CC(c6ccccc6)CC56CC6)N4C3=O)cc2c1` (stereo partly drawn) [Compound 407, butyl ((difluoro(7-(((3S,6S,10aS)-5-oxo-3-(6-phenyl-4-azaspiro[2.4]heptane-4-carbonyl)decahydropyrrolo[1,2-a]azocin-6-yl)carbamoyl)naphthalen-2-yl)methyl)(phenoxy)phosphoryl)-L-alaninate], the IC50 is more than 3 µM on pY705-STAT3 in PBMC (PBMC, read-out: STAT3) and 1000 to 3000 nM against pY641-STAT6 in PBMC.

On to `CCCOC(=O)[C@H](C)NP(=O)(Cc1ccc2ccc(C(=O)N[C@H]3CCCC[C@H]4CC[C@@H](C(=O)N5C[C@@H](c6cc[nH]c(=O)c6)CC56CC6)N4C3=O)cc2c1)Oc1ccccc1` (stereo partly drawn) [Compound 409, propyl (((7-(((3S,6S,10aS)-5-oxo-3-((R)-6-(2-oxo-1,2-dihydropyridin-4-yl)-4-azaspiro[2.4]heptane-4-carbonyl)decahydropyrrolo[1,2-a]azocin-6-yl)carbamoyl)naphthalen-2-yl)methyl)(phenoxy)phosphoryl)-L-alaninate], for which the IC50 at pY705-STAT3 in PBMC (PBMC, read-out: STAT3) was more than 3 µM; on pY641-STAT6 in PBMC it was 1000 to 3000 nM.
